According to ChEMBL document CHEMBL4359928, “Scaffold Morphing To Identify Novel DprE1 Inhibitors with Antimycobacterial Activity” (ACS Med Chem Lett, 2019):
≈ marks a conversion by molar mass, not a printed value.

Columns and labels:
Type in all cases: functional
[1] = tested on: Mycobacterium tuberculosis; assay: Antimycobacterial activity against BTZ043-resistant Mycobacterium tuberculosis H37Rv harbouring DprE1 C387G mutant assessed as reduction in bacterial cell growth
[2] = tested on: Mycobacterium tuberculosis; assay: Antimycobacterial activity against BTZ043-resistant Mycobacterium tuberculosis H37Rv harbouring DprE1 C387S mutant assessed as reduction in bacterial cell growth
[3] = tested on: Mycobacterium tuberculosis; assay: Antimycobacterial activity against Mycobacterium tuberculosis H37Rv overexpressing DprE1 assessed as reduction in bacterial cell growth
[4] = tested on: Mycobacterium tuberculosis; assay: Antimycobacterial activity against Mycobacterium tuberculosis H37Rv harbouring DprE1 Y314S mutant assessed as reduction in bacterial cell growth
[5] = tested on: Mycobacterium tuberculosis; assay: Ratio of MIC for 1,4 azaindole-resistant Mycobacterium tuberculosis H37Rv harboring DprE1 Y314H mutant to MIC for wild type Mycobacterium tuberculosis H37Rv
[6] = tested on: Mycobacterium tuberculosis; assay: Ratio of MIC for Mycobacterium tuberculosis H37Rv overexpressing DprE1 to MIC for wild type Mycobacterium tuberculosis H37Rv
[7] = tested on: Mycobacterium tuberculosis; assay: Antimycobacterial activity against 1,4-azaindole resistant Mycobacterium tuberculosis H37Rv harbouring DprE1 Y314H mutant assessed as reduction in bacterial cell growth
[8] = Mycobacterium tuberculosis, H37Rv, read-out: MIC

SMILES	MIC [1] [µM]	MIC [2] [µM]	MIC [3, 8] [µM]	MIC [4] [µM]	Ratio [5]	Ratio [6]	MIC [7] [µM]	MIC [3] [µM]
CO[C@H]1/C=C/O[C@@]2(C)Oc3c(C)c(O)c4c(O)c(c(/C=N/N5CCN(C)CC5)c(O)c4c3C2=O)NC(=O)/C(C)=C\C=C\[C@H](C)[C@H](O)[C@@H](C)[C@@H](O)[C@@H](C)[C@H](OC(C)=O)[C@@H]1C [RIFAMPIN]	0.005 (≈ 0.00411 µg/mL)	0.005 (≈ 0.00411 µg/mL)	0.005 (≈ 0.00411 µg/mL)	–	–	–	–	–
COc1ncnc(Cn2cnc3c(C(=O)NCCF)cccc32)c1C	0.78 (≈ 0.268 µg/mL)	0.78 (≈ 0.268 µg/mL)	25 to 50 (≈ 8.58 to 17.2 µg/mL)	25 (≈ 8.58 µg/mL)	20	20	25 to 50	–
C[C@H]1COC2(CCN(c3nc(=O)c4cc(C(F)(F)F)cc([N+](=O)[O-])c4s3)CC2)O1 [BTZ-043]	25 (≈ 10.8 µg/mL)	25 (≈ 10.8 µg/mL)	–	0.006 (≈ 0.00259 µg/mL)	–	–	0.003 (≈ 0.00129 µg/mL)	12.5 (≈ 5.39 µg/mL)
NNC(=O)c1ccncc1 [ISONIAZID]	0.44 (≈ 0.0603 µg/mL)	0.44 (≈ 0.0603 µg/mL)	0.22 (≈ 0.0302 µg/mL)	0.22 (≈ 0.0302 µg/mL)	–	–	0.44 (≈ 0.0603 µg/mL)	–
